Patent US20260262643A1, “HERBICIDAL BENZOXAZINES” (FMC CORPORATION, priority 2022, published 2026)

What was measured:
ragweed [1] = assay: Test A postemergence; assay type: in vivo, Ambrosia artemisiifolia; settings: postemergence, 10 days; for Ragweed plant response rating: 125 g ai/ha, 0 to 100 scale, 0 no effect, 100 complete control; for Plant response rating, Ragweed: 500 g ai/ha, visual injury, 0 to 100 scale (0 no effect, 100 complete control)
In short: (§1)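 Seeds in loam–sand blend received a directed preemergence soil spray of compound in non-phytotoxic solvent with surfactant; postemergence plants (2–10 cm, one- to two-leaf stage) were sprayed with the same formulation. After 10 days in greenhouse, injury was rated visually versus untreated controls, 0 (no effect) to 100 (complete control).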

horseweed = assay: Test A postemergence; assay type: in vivo, Erigeron canadensis; settings: postemergence, 10 days; for Horseweed plant response rating: 125 g ai/ha, 0 to 100 scale, 0 no effect, 100 complete control; for Plant response rating, Horseweed: 500 g ai/ha, visual injury, 0 to 100 scale (0 no effect, 100 complete control)
In short: as §1

blackgrass [2] = assay: Test A postemergence; assay type: in vivo, Alopecurus myosuroides; settings: postemergence, 10 days; for Blackgrass plant response rating: 125 g ai/ha, 0 to 100 scale, 0 no effect, 100 complete control; for Plant response rating, Blackgrass: 500 g ai/ha, visual injury, 0 to 100 scale (0 no effect, 100 complete control)
In short: as §1

corn [3] = assay: Test A postemergence; assay type: in vivo, Zea mays; settings: postemergence, 10 days; for Corn plant response rating: 125 g ai/ha, 0 to 100 scale, 0 no effect, 100 complete control; for Plant response rating, Corn: 500 g ai/ha, visual injury, 0 to 100 scale (0 no effect, 100 complete control)
In short: as §1

pigweed, palmer [4] = assay: Test A postemergence; assay type: in vivo, Amaranthus palmeri; settings: postemergence, 10 days; for Pigweed, Palmer plant response rating: 125 g ai/ha, 0 to 100 scale, 0 no effect, 100 complete control; for Plant response rating, Pigweed, Palmer: 500 g ai/ha, visual injury, 0 to 100 scale (0 no effect, 100 complete control)
In short: as §1

barnyardgrass = assay: Test B flooded paddy test; assay type: in vivo, Echinochloa crus-galli; settings: 250 g ai/ha, Flood, 13 days, 0 to 100 scale (0 no effect, 100 complete control)
In short: (§2)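 Plants at the 2-leaf stage were flooded to 3 cm above the soil, and test compounds were applied directly into the paddy water, with that depth held throughout. After 13 days in a greenhouse, injury was rated visually against untreated controls on a 0–100 scale (100 = complete control).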

foxtail, giant [5] = assay: Test A postemergence; assay type: in vivo, Setaria faberi; settings: postemergence, 10 days; for Foxtail, Giant plant response rating: 125 g ai/ha, 0 to 100 scale, 0 no effect, 100 complete control; for Plant response rating, Foxtail, Giant: 500 g ai/ha, visual injury, 0 to 100 scale (0 no effect, 100 complete control)
In short: as §1

corn [6] = assay: Test A preemergence; assay type: in vivo, Zea mays
In short: as §1

oat, wild [7] = assay: Test A postemergence; assay type: in vivo, Avena fatua; settings: postemergence, 10 days; for Oat, Wild plant response rating: 125 g ai/ha, 0 to 100 scale, 0 no effect, 100 complete control; for Plant response rating, Oat, Wild: 500 g ai/ha, visual injury, 0 to 100 scale (0 no effect, 100 complete control)
In short: as §1

goosegrass [8] = assay: Test A preemergence; assay type: in vivo, Eleusine indica
In short: as §1

sedge, umbrella = assay: Test B flooded paddy test; assay type: in vivo, Cyperus difformis; settings: 250 g ai/ha, Flood, 13 days, 0 to 100 scale (0 no effect, 100 complete control)
In short: as §2

kochia [9] = assay: Test A postemergence; assay type: in vivo, Bassia scoparia; settings: postemergence, 10 days; for Kochia plant response rating: 125 g ai/ha, 0 to 100 scale, 0 no effect, 100 complete control; for Plant response rating, Kochia: 500 g ai/ha, visual injury, 0 to 100 scale (0 no effect, 100 complete control)
In short: as §1

rice = assay: Test B flooded paddy test; assay type: in vivo, Oryza sativa; settings: 250 g ai/ha, Flood, 13 days, 0 to 100 scale (0 no effect, 100 complete control)
In short: as §2

kochia [10] = assay: Test A preemergence; assay type: in vivo, Bassia scoparia
In short: as §1

foxtail, giant [11] = assay: Test A preemergence; assay type: in vivo, Setaria faberi
In short: as §1

soybean [12] = assay: Test A preemergence; assay type: in vivo, Glycine max
In short: as §1

ragweed [13] = assay: Test A preemergence; assay type: in vivo, Ambrosia artemisiifolia
In short: as §1

ryegrass, Italian [14] = assay: Test A preemergence; assay type: in vivo, Lolium multiflorum
In short: as §1

soybean [15] = assay: Test A postemergence; assay type: in vivo, Glycine max; settings: postemergence, 10 days; for Soybean plant response rating: 125 g ai/ha, 0 to 100 scale, 0 no effect, 100 complete control; for Plant response rating, Soybean: 500 g ai/ha, visual injury, 0 to 100 scale (0 no effect, 100 complete control)
In short: as §1

blackgrass [16] = assay: Test A preemergence; assay type: in vivo, Alopecurus myosuroides
In short: as §1

pigweed, palmer [17] = assay: Test A preemergence; assay type: in vivo, Amaranthus palmeri
In short: as §1

wheat [18] = assay: Test A preemergence; assay type: in vivo, Triticum aestivum
In short: as §1

ryegrass, Italian [19] = assay: Test A postemergence; assay type: in vivo, Lolium multiflorum; settings: postemergence, 10 days; for Ryegrass, Italian plant response rating: 125 g ai/ha, 0 to 100 scale, 0 no effect, 100 complete control; for Plant response rating, Ryegrass, Italian: 500 g ai/ha, visual injury, 0 to 100 scale (0 no effect, 100 complete control)
In short: as §1

goosegrass [20] = assay: Test A postemergence; assay type: in vivo, Eleusine indica; settings: postemergence, 10 days; for Goosegrass plant response rating: 125 g ai/ha, 0 to 100 scale, 0 no effect, 100 complete control; for Plant response rating, Goosegrass: 500 g ai/ha, visual injury, 0 to 100 scale (0 no effect, 100 complete control)
In short: as §1

oat, wild [21] = assay: Test A preemergence; assay type: in vivo, Avena fatua
In short: as §1

ducksalad = assay: Test B flooded paddy test; assay type: in vivo, Heteranthera limosa; settings: 250 g ai/ha, Flood, 13 days, 0 to 100 scale (0 no effect, 100 complete control)
In short: as §2

wheat [22] = assay: Test A postemergence; assay type: in vivo, Triticum aestivum; settings: postemergence, 10 days; for Wheat plant response rating: 125 g ai/ha, 0 to 100 scale, 0 no effect, 100 complete control; for Plant response rating, Wheat: 500 g ai/ha, visual injury, 0 to 100 scale (0 no effect, 100 complete control)
In short: as §1

[23] = 125 g ai/ha, visual injury after 10 days, 0 to 100 scale, 0 is no effect, 100 is complete control
[24] = 500 g ai/ha, 0 to 100 scale (0 no effect, 100 complete control), 10 days

In the case of `CCCCc1ncn(-c2cccc(C(=O)N3C[C@H](C)Oc4c(C)cccc43)c2)n1` [Compound 86], the “Ragweed plant response rating” value (ragweed [1]) is reported as 50, the “Plant response rating, Ragweed” value (ragweed [1]) is reported as 50 and the “Horseweed plant response rating” value (horseweed) is reported as 0. The “Plant response rating, Horseweed” value (horseweed) was 0, the “Blackgrass plant response rating” value (blackgrass [2]) was 0 and the “Plant response rating, Blackgrass” value (blackgrass [2]) was 30. For the same molecule, the “Corn plant response rating” value (corn [3]) was 0, the “Plant response rating, Corn” value (corn [3]) was 10 and the “Pigweed, Palmer plant response rating” value (pigweed, palmer [4]) was 20. The “Plant response rating, Pigweed, Palmer” value (pigweed, palmer [4]) was 40, the “Plant response rating, Barnyardgrass” value (barnyardgrass) was 0 and the “Foxtail, Giant plant response rating” value (foxtail, giant [5]) was 10. For the same molecule, the “Plant response rating, Foxtail, Giant” value (foxtail, giant [5]) was 20, the “Plant response rating, Corn” value (corn [6]; [23]) was 0 and the “Plant response rating, Corn” value (corn [6]; [24]) was 20. The “Oat, Wild plant response rating” value (oat, wild [7]) was 0, the “Plant response rating, Oat, Wild” value (oat, wild [7]) was 10 and the “Plant response rating, Goosegrass” value (goosegrass [8]; [23]) was 60. For the same molecule, the “Plant response rating, Goosegrass” value (goosegrass [8]; [24]) was 90, the “Plant response rating, Sedge, Umbrella” value (sedge, umbrella) was 90 and the “Kochia plant response rating” value (kochia [9]) was 50. For the same molecule, the “Plant response rating, Kochia” value (kochia [9]) was 90, the “Plant response rating, Rice” value (rice) was 0 and the “Plant response rating, Kochia” value (kochia [10]; [23]) was 60. For the same molecule, the “Plant response rating, Kochia” value (kochia [10]; [24]) was 70, the “Plant response rating, Foxtail, Giant” value (foxtail, giant [11]; [23]) was 0 and the “Plant response rating, Foxtail, Giant” value (foxtail, giant [11]; [24]) was 70. The “Plant response rating, Soybean” value (soybean [12]; [23]) was 0, the “Plant response rating, Soybean” value (soybean [12]; [24]) was 0 and the “Plant response rating, Ragweed” value (ragweed [13]; [23]) was 0. For the same molecule, the “Plant response rating, Ragweed” value (ragweed [13]; [24]) was 0, the “Plant response rating, Ryegrass, Italian” value (ryegrass, Italian [14]; [23]) was 70 and the “Plant response rating, Ryegrass, Italian” value (ryegrass, Italian [14]; [24]) was 100. The “Soybean plant response rating” value (soybean [15]) was 50, the “Plant response rating, Soybean” value (soybean [15]) was 100 and the “Plant response rating, Blackgrass” value (blackgrass [16]; [23]) was 0. For the same molecule, the “Plant response rating, Blackgrass” value (blackgrass [16]; [24]) was 30, the “Plant response rating, Pigweed, Palmer” value (pigweed, palmer [17]; [23]) was 20 and the “Plant response rating, Pigweed, Palmer” value (pigweed, palmer [17]; [24]) was 90. For the same molecule, the “Plant response rating, Wheat” value (wheat [18]; [23]) was 0, the “Plant response rating, Wheat” value (wheat [18]; [24]) was 10 and the “Ryegrass, Italian plant response rating” value (ryegrass, Italian [19]) was 10. The “Plant response rating, Ryegrass, Italian” value (ryegrass, Italian [19]) was 50, the “Goosegrass plant response rating” value (goosegrass [20]) was 10 and the “Plant response rating, Goosegrass” value (goosegrass [20]) was 50. For the same molecule, the “Plant response rating, Oat, Wild” value (oat, wild [21]; [23]) was 0, the “Plant response rating, Oat, Wild” value (oat, wild [21]; [24]) was 80 and the “Plant response rating, Ducksalad” value (ducksalad) was 65. For the same molecule, the “Wheat plant response rating” value (wheat [22]) was 10 and the “Plant response rating, Wheat” value (wheat [22]) was 20.
In the case of `COc1ccc(-n2cnc(C)n2)cc1C(=O)N1C[C@H](C)Oc2c(Cl)cccc21` [Compound 89], the “Ragweed plant response rating” value (ragweed [1]) is reported as 60, the “Plant response rating, Ragweed” value (ragweed [1]) is reported as 80 and the “Horseweed plant response rating” value (horseweed) is reported as 20. The “Plant response rating, Horseweed” value (horseweed) was 40, the “Blackgrass plant response rating” value (blackgrass [2]) was 70 and the “Plant response rating, Blackgrass” value (blackgrass [2]) was 80. For the same molecule, the “Corn plant response rating” value (corn [3]) was 70, the “Plant response rating, Corn” value (corn [3]) was 70 and the “Pigweed, Palmer plant response rating” value (pigweed, palmer [4]) was 70. The “Plant response rating, Pigweed, Palmer” value (pigweed, palmer [4]) was 100, the “Plant response rating, Barnyardgrass” value (barnyardgrass) was 60 and the “Foxtail, Giant plant response rating” value (foxtail, giant [5]) was 90. For the same molecule, the “Plant response rating, Foxtail, Giant” value (foxtail, giant [5]) was 100, the “Plant response rating, Corn” value (corn [6]; [23]) was 20 and the “Plant response rating, Corn” value (corn [6]; [24]) was 60. The “Oat, Wild plant response rating” value (oat, wild [7]) was 80, the “Plant response rating, Oat, Wild” value (oat, wild [7]) was 90 and the “Plant response rating, Goosegrass” value (goosegrass [8]; [23]) was 100. The “Plant response rating, Goosegrass” value (goosegrass [8]; [24]) was 100, the “Plant response rating, Sedge, Umbrella” value (sedge, umbrella) was 100 and the “Kochia plant response rating” value (kochia [9]) was 70. The “Plant response rating, Kochia” value (kochia [9]) was 90, the “Plant response rating, Rice” value (rice) was 15 and the “Plant response rating, Kochia” value (kochia [10]; [23]) was 70. For the same molecule, the “Plant response rating, Kochia” value (kochia [10]; [24]) was 100, the “Plant response rating, Foxtail, Giant” value (foxtail, giant [11]; [23]) was 100 and the “Plant response rating, Foxtail, Giant” value (foxtail, giant [11]; [24]) was 100. For the same molecule, the “Plant response rating, Soybean” value (soybean [12]; [23]) was 100, the “Plant response rating, Soybean” value (soybean [12]; [24]) was 100 and the “Plant response rating, Ragweed” value (ragweed [13]; [23]) was 40. The “Plant response rating, Ragweed” value (ragweed [13]; [24]) was 90, the “Plant response rating, Ryegrass, Italian” value (ryegrass, Italian [14]; [23]) was 90 and the “Plant response rating, Ryegrass, Italian” value (ryegrass, Italian [14]; [24]) was 100. For the same molecule, the “Soybean plant response rating” value (soybean [15]) was 100, the “Plant response rating, Soybean” value (soybean [15]) was 100 and the “Plant response rating, Blackgrass” value (blackgrass [16]; [23]) was 70. For the same molecule, the “Plant response rating, Blackgrass” value (blackgrass [16]; [24]) was 90, the “Plant response rating, Pigweed, Palmer” value (pigweed, palmer [17]; [23]) was 90 and the “Plant response rating, Pigweed, Palmer” value (pigweed, palmer [17]; [24]) was 100. For the same molecule, the “Plant response rating, Wheat” value (wheat [18]; [23]) was 20, the “Plant response rating, Wheat” value (wheat [18]; [24]) was 60 and the “Ryegrass, Italian plant response rating” value (ryegrass, Italian [19]) was 100. The “Plant response rating, Ryegrass, Italian” value (ryegrass, Italian [19]) was 100, the “Goosegrass plant response rating” value (goosegrass [20]) was 90 and the “Plant response rating, Goosegrass” value (goosegrass [20]) was 100. For the same molecule, the “Plant response rating, Oat, Wild” value (oat, wild [21]; [23]) was 70, the “Plant response rating, Oat, Wild” value (oat, wild [21]; [24]) was 90 and the “Plant response rating, Ducksalad” value (ducksalad) was 100. The “Wheat plant response rating” value (wheat [22]) was 50 and the “Plant response rating, Wheat” value (wheat [22]) was 50.
